Assay results taken from patent US20150239824A1, “BRANCHED OR MACROCYCLIC POLYAMINES AND USES THEREOF” (UNIVERSITE DE STRASBOURG, priority 2012, published 2015).
“Also recorded” adds a separate entry of the source.

Assays:
[1] = system: NIH3T3 cells; experiment: Cell entry of polyamines (Cy3 fluorescence, injection); type: cell-based, mouse; settings: 100 μM, 20 min
Protocol: (§1) Polyamine compounds were dissolved in Milli-Q water to give a stock solution of 30 mM. For immunostaining and microscopy experiments, polyamine compounds were added to the cell medium at a final concentration of 100 μM, except for experiments which tested efficiency. For immunostaining experiments, NIH3T3 cells were incubated with Blebbistatin (30 μM), ML7 (10 μM), Y27632 (10 μM), Cytochalasin D (1 μM) (Sigma-Aldrich) for 30 min, LY294002 (50 μM) (Sigma-Aldrich) for 30 minutes. Latrunculin A (1.5 μM) (Sigma-Aldrich) was added for 5 min. After additional 20 min incubation with 100 μM polyamine, cells were fixed and stained.
Fluorescent images were taken in a Fluorescence Nikon Ti microscope (60× oil objective, NA 1.25) combined with a Photometrics CoolSNAP HQ2 camera and NIS acquisition software.

[2] = system: NIH3T3 cells; experiment: Immunofluorescence of microtubule and intermediate filament organization; type: cell-based, mouse; settings: 100 μM, 20 min
Protocol: (§2) Cells were fixed in 3% PFA (Sigma-Aldrich) for 17 min and then permeabilized with 0.5% Triton solution (Sigma-Aldrich) for 3 min and rinsed twice with 1× PBS. For actin and focal contacts staining, cells were incubated with Alexa 488 phalloidin (1:200, Molecular Probes) and anti-paxillin monoclonal primary antibody (1:50, BD Biosciences) for 45 min at RT. Samples were finally mounted in 50% Glycerol/1× PBS on glass slides and protected from drying. For the intermediate filaments staining, cells were quenched in NaBH4/PBS solution for 10 min at RT. Cells were incubated first with anti-vimentin (1:500, Convance) for 1 h and then with goat anti-guinea pig Dylight 594 (1:1000, Jackson) for 45 min at RT. Microtubules were fixed using methanol at −20° C. for 10 min and stained with mouse monoclonal anti-alpha tubulin (1:50, Sigma-Aldrich) for 45 min at RT.

[3] = target: T1, actin filament barbed ends (Oryctolagus cuniculus, UniProt P68135); experiment: Seeded barbed end growth assay (spectrin-actin seeds); type: biochemical, rabbit; settings: neomycin up to at least 100 μM
T1 construct: Actin was purified from rabbit skeletal muscle, isolated in CaATP-G-actin form by size exclusion chromatography; from tissue; host or cells: rabbit skeletal muscle
Protocol: (§3) Actin assembly was monitored using as probes the increase in light scattering intensity (310 nm, 90° angle) and in the fluorescence of pyrenyl-actin (excitation 366 nm, emission 407 nm). Measurements were made at room temperature in a Xenius Safas spectrofluorimeter. CaATP-G-actin was converted into MgATP-G-actin by addition of 20 μM MgCl2 and 0.2 mM EGTA to a solution of 10 μM CaATP-G-actin in G buffer. Polymerization was triggered by addition of MgCl2 (1 mM final), EGTA (0.2 mM final) and KCl as indicated to MgATP-G-actin. The 1:1 CaATP-actin complex was obtained by removing free ATP by two consecutive treatments of CaATP-G-actin in G buffer with 10% suspension vol/vol of Dowex-I (BioRad) in G buffer without ATP.
Seeded barbed end growth assays were performed at 2.5 μM actin and 0.1 nM spectrin-actin seeds^38. Pointed end growth assays were performed similarly but using preformed gelsolin-actin complexes (2 nM final) as seeds. The initial rate of fluorescence increase was measured.
(§4) Actin was purified from rabbit skeletal muscle, isolated in CaATP-G-actin form by size exclusion chromatography in G buffer (5 mM Tris-Cl—, pH 7.8, 0.1 mM CaCl2, 0.2 mM ATP, 1 mM DTT, 0.01% NaN3) and pyrenyl-labeled as described^1. […]

[4] = system: NIH3T3 cells; experiment: Growth of lamellipodia / increase in projected cell area in NIH3T3 cells; type: cell-based, mouse; settings: 100 μM
Protocol: as §1
(§5) Increase in cell area for given time point (n=5, 10 and 20 min) was calculated by (A1n-A0)/A0, where A0 and A1n are the areas before and after polyamine addition, respectively. Kymographs for the analysis of actin retrograde flow in the lamellipodia region were performed in ImageJ. Moving features were visualized as diagonal streaks with slope depending on the velocity of movement.
as §2
NIH3T3 mouse fibroblast and REF52 rat embryo fibroblasts (ATCC) were cultured in DMEM supplemented with 10% calf bovine serum (BCS, Sigma-Aldrich) or fetal bovine serum (FCS, Hyclone) and 1% Pen/Streptomycin (InVitrogen). […]

[5] = target: T2, F-actin (Oryctolagus cuniculus, UniProt P68135); experiment: Critical concentration plots, free barbed ends; type: biochemical, rabbit; settings: F-actin at steady state
T2 construct: Actin was purified from rabbit skeletal muscle, isolated in CaATP-G-actin form by size exclusion chromatography; from tissue; host or cells: rabbit skeletal muscle
Protocol: (§6) Critical concentration plots were performed by serial dilution of F-actin (10% pyrenyl-labeled) in F buffer containing the desired amounts of BPA/MPA. Pyrenyl-actin fluorescence was read after overnight incubation in the dark.
(§7) Actin was purified from rabbit skeletal muscle, isolated in CaATP-G-actin form by size exclusion chromatography in G buffer (5 mM Tris-Cl—, pH 7.8, 0.1 mM CaCl2, 0.2 mM ATP, 1 mM DTT, 0.01% NaN3) and pyrenyl-labeled as described^1. Human gelsolin, mouse profilin, mouse Capping Protein and human ADF were bacterial recombinant proteins, and Arp2/3 was purified from bovine brain as described in Egile et al.^39. His6-tagged human N-WASP was expressed in sf9 cells using the baculovirus expression system and purified as described^39. Spectrin-actin seeds were isolated and purified from human blood cells^40.

[6] = target: T3, actin (Oryctolagus cuniculus, UniProt P68135); experiment: Actin assembly and bundling (light scattering, pyrenyl-actin fluorescence, electron microscopy); type: biochemical, rabbit; settings: for bundling / polymerization of actin filaments in vitro: light scattering, neomycin vs BPA: low ionic strength (G-buffer), up to at least 100 μM
T3 construct: Actin was purified from rabbit skeletal muscle, isolated in CaATP-G-actin form by size exclusion chromatography; from tissue; host or cells: rabbit skeletal muscle
Protocol: as §3, §7
Electron microscopy observation of actin assemblies in the presence of C7N6 MPA was performed using a Philips CM12 electron microscope at 80 kV. Samples containing actin (2 μM) in either in G or F form and C7N6 MPA were prepared and placed on glow-discharged carbon-coated grids.

[7] = target: T4, F-actin with ADF (Oryctolagus cuniculus, UniProt P68135); experiment: ADF-induced depolymerization of gelsolin-capped filaments and sedimentation assay; type: biochemical, rabbit
T4 construct: Actin was purified from rabbit skeletal muscle, isolated in CaATP-G-actin form by size exclusion chromatography; from tissue; host or cells: rabbit skeletal muscle (actin); bacteria (ADF, gelsolin)
From the text: Actin-based motile processes result from site-directed initiation of actin assembly by two major signal-responsive protein machineries. WASP family proteins use the Arp2/3 complex to branch filaments at the membrane and assemble a dendritic protrusive meshwork, while formins initiate barbed-end processive assembly of actin bundles. In both cases, force is produced by barbed-end growth fueled by regulated treadmilling. Treadmilling that drives the formation of dendritic actin arrays is enhanced by the synergistic effects of capping proteins, profilin and Actin Depolymerizing Factor (ADF/cofilin). ADF is known to destabilize actin filaments, promoting a large increase in pointed end depolymerization rate, the limiting step in filament treadmilling^17. FIG. 6 Ba-c confirms that gelsolin-capped filaments depolymerize up to a maximum of 30-fold faster in the presence of ADF, in agreement with previous data^17. […] In the presence of cyclic or branched polyamines, the rate of depolymerization was much less enhanced by ADF (about three-fold at 3 μM ADF, versus 30-fold in the control without polyamines).
as §4

[8] = target: T5, N-WASP-coated beads, actin-based propulsion (Oryctolagus cuniculus, UniProt P68135); experiment: Reconstituted motility assay of N-WASP-coated beads; type: biochemical; settings: 50 μM added a few minutes after initiation of comet tail formation
T5 construct: Actin was purified from rabbit skeletal muscle, isolated in CaATP-G-actin form by size exclusion chromatography; from tissue; host or cells: rabbit skeletal muscle (actin); sf9/baculovirus (N-WASP); bacteria (ADF, profilin, Capping Protein); bovine brain (Arp2/3)
Protocol: Reconstituted motility assays were performed using 2 μm diameter carboxylated polystyrene beads functionalized with N-WASP (170 nM, 2 hours, followed by 1% BSA neutralization for 20 min)^19. Beads were placed in a reconstituted motility mix containing 7.5 μM F-actin, 75 nM Capping Protein, 2 μM profilin, 7 μM ADF, 75 nM Arp2/3 complex in × buffer (10mM HEPES, 0.1M KCl, 1 mM MgCl2, 0.1 mM CaCl2, 1 mM ATP, 7 mM DTT, 1.5 mM DABCO at pH 7.8, 0.5% BSA and 0.2% methylcellulose). C8N6 BPA was then added at 50 μM. Observations were made using a phase contrast Olympus AX70 microscope controlled by MetaMorph 6.3r7 with CCD camera and 20× phase objective. Data analysis was performed to extract bead velocity with ImageJ software. Bead velocity was measured and averaged on 10-15 beads.
as §7

[9] = system: NIH3T3 cells; experiment: Actin filament stability in Triton-treated cells; type: cell-based, mouse; settings: 100 μM, then 0.1% Triton
[10] = system: REF 52 cell; experiment: Actin retrograde flow in lamellipodia; type: cell-based, rat; settings: lamellipodia region, kymographs, n=6 cells
Protocol: as §5
NIH3T3 mouse fibroblast and REF52 rat embryo fibroblasts (ATCC) were cultured in DMEM supplemented with 10% calf bovine serum (BCS, Sigma-Aldrich) or fetal bovine serum (FCS, Hyclone) and 1% Pen/Streptomycin (InVitrogen). Cells were grown at 37° C. and 5% CO2. For microscopy and immunostaining, cells were trypsinized (0.25% Trypsin-EDTA, InVitrogen), centrifuged and plated on glass coverslips. For live cell observation, Leibovitz's L-15 1× medium (InVitrogen) supplemented with 10% serum (FCS for REF52 and BCS for NIH3T3 cells) and 1% antibiotics was used.
For retrograde flow experiments, surfaces were coated with poly-lysine (Sigma-Aldrich) as described in Verkhovsky et al.^20.
Actin retrograde flow velocity experiments were performed in a Leica DM 2500 Microscope with a 100× oil objective at 37° C. Data acquisition was 1 image/5 sec.

[11] = target: T6, actin with Capping Protein (Oryctolagus cuniculus, UniProt P68135); experiment: Critical concentration and steady-state F-actin in the presence of Capping Protein; type: biochemical, rabbit; settings: 100 μM, 1 μM total actin
T6 construct: Actin was purified from rabbit skeletal muscle, isolated in CaATP-G-actin form by size exclusion chromatography; from tissue; host or cells: rabbit skeletal muscle (actin); bacteria (Capping Protein)
Protocol: as §6, §7

Row | critical concentration for filament assembly [5] | critical concentration for filament assembly ([5]; listed as BPA) | assembly of actin at physiological ionic strength ([6]; 1 mM MgCl2, 0.1 M KCl) | bundling / polymerization of actin filaments in vitro ([6]; listed as BPA) | ADF-induced increase in rate of F-actin depolymerization ([7]; gelsolin-capped filaments) | propulsion rate of N-WASP-coated beads [8] | nucleation / short polymers in the presence of capping protein [11] | Molecule | entry into cells [1] | entry into cells ([1]; listed as Cy3-labeled C8N6 BPA) | organization of microtubules and intermediate filaments [2] | inhibition of barbed-end growth [3] | focal contacts (paxillin immunofluorescence) ([4]; 20 min) | actin bundles within the lamellipodial array ([4]; 20 min, actin staining) | growth of lamellipodia ([4]; NIH3T3 cells, compound added to the cell culture medium) | bundling / polymerization of actin filaments in vitro [6] | steady state of actin assembly in the presence of ADF ([7]; sedimentation, F-actin 3 μM, 0.3 mM polyamine, one hour) | stabilization of actin filaments in Triton-treated cells [9] | actin retrograde flow velocity [10] | nucleation / short polymers in the presence of capping protein ([11]; listed as BPA)
1 |  |  |  |  |  |  |  | CC[N+](CC)(CC)CCC[N+]1=C(/C=C/C=C2/N(CCCCCC(=O)NCCCN(CCCN)CCCCCCCCN(CCCN)CCCN)c3ccccc3C2(C)C)C(C)(C)c2ccccc21 [C8N6 BPA-Cy3] | the polyamines enter the cells | entered the cell and displayed the same effect as the unlabeled C8N6 BPA; also recorded: the polyamines enter the cells |  |  |  |  |  |  |  |  |  | 
2 | not significantly affected | strictly superimposable | induced assembly of actin | massive bundling is induced | greatly weakened | dramatic decrease in propulsion rate | enhance nucleation by capping proteins | NCCCN(CCCN)CCCCCCCCN(CCCN)CCCN [C8N6 BPA] |  |  | no effect on microtubules and intermediate filaments organization | inhibition | exhibited the expected distribution and shapes of focal contacts | bundles of actin arranged in microspikes were observed | promote growth of lamellipodia | induce ATP sensitive bundling of actin filaments | practically unaffected; also recorded: not affected | stabilizes actin filaments in Triton-treated cells like Jasplakinolide | clear reduction in the actin retrograde flow | stabilizes a greater number of short polymers in the presence of capping protein
3 |  |  |  |  |  |  |  | neomycin [reference compound] |  |  |  | does not inhibit barbed-end growth; also recorded: not inhibited |  |  |  | does not induce bundling of actin; also recorded: does not promote polymerization of actin |  |  |  | 
